According to patent US20020086895A1, “Methods of treating fungal infections” (priority 1985, published 2002):

How the values were obtained:
[1] = system: A. fumigatus; assay: Antifungal screen of matrix-synthesis aurones in 96-well plates, A. fumigatus; format: cell-based, Aspergillus fumigatus
Procedure: (§1) Thirty-eight 96-well plates were prepared with the above samples and tested against both C. albicans and A. fumigatus at either 8 μg/ml or 12.5 μg/ml. Plates with high activity were retested at the same concentration to confirm activity.
(§2) These compounds have formulae where W′ is OH, V is 3′,4′-(1,1-dimethylpropyloxy) to form a dihydropyran series, and X is selected from 3,4-dimethoxyphenyl, 4-t-butylphenyl, 2(prop-2-enyloxy)phenyl, 3-phenoxyphenyl, 3-ethoxy-4-hydroxyphenyl, 6-cyclohexenyl, and norborn-4-yl.

[2] = system: C. albicans; assay: Antifungal screen of matrix-synthesis aurones in 96-well plates, C. albicans; format: cell-based, Candida albicans; settings: @8 μg/ml
Procedure: as §1, §2

SMILES	AF percent inhibition ([1]; @12.5 μg/ml)	CA percent inhibition [2]	AF percent inhibition ([1]; @8 μg/ml)
CC(C)=CCc1c(O)cc2c(c1O)C(=O)C(=Cc1ccc(Oc3ccccc3)cc1)O2	CA 0% AF 0% @12.5 μg/ml		
C=CCOc1ccccc1C=C1Oc2cc3c(c(O)c2C1=O)CCC(C)(C)O3		67%	94%
CC1(C)CCc2c(cc3c(c2O)C(=O)C(=Cc2ccc(O)c(O)c2)O3)O1		87%	0%
CC1(C)CCc2c(cc3c(c2O)C(=O)C(=Cc2ccc(Oc4ccccc4)cc2)O3)O1		80%	76%
CC1(C)CCc2c(cc3c(c2O)C(=O)C(=Cc2cccc(O)c2O)O3)O1		96%	52%
CC1(C)CCc2c(cc3c(c2O)C(=O)C(=Cc2ccc(O)c(O)c2O)O3)O1		0%	69%
C=CCOc1ccccc1C=C1Oc2cc(O)c(CC=C)c(O)c2C1=O		53%	96%
C=CCc1c(O)cc2c(c1O)C(=O)C(=Cc1ccc(O)c(O)c1)O2		CA 0% AF 0% @8 μg/ml	CA 0% AF 0% @8 μg/ml
C=CCc1c(O)cc2c(c1O)C(=O)C(=Cc1ccc(Oc3ccccc3)cc1)O2		52%	68%
C=CCc1c(O)cc2c(c1O)C(=O)C(=Cc1cccc(O)c1O)O2		45%	0%
C=CCc1c(O)cc2c(c1O)C(=O)C(=Cc1ccc(O)c(O)c1O)O2		69%	35%
CCOc1ccc(C=C2Oc3cc(O)cc(O)c3C2=O)cc1OC	CA 0% AF 0% @12.5 μg/ml		
CCOc1ccccc1C=C1Oc2cc(O)cc(O)c2C1=O	CA 0% AF 0% @12.5 μg/ml		
COc1ccccc1C=C1Oc2cc(O)cc(O)c2C1=O	CA 0% AF 0% @12.5 μg/ml		
CC1(C)CCc2c(cc3c(c2O)C(=O)C(=Cc2cc(C(C)(C)C)c(O)c(C(C)(C)C)c2)O3)O1		69%	68%
CC1(C)CCc2c(cc3c(c2O)C(=O)C(=Cc2ccc(F)cc2F)O3)O1		0%	94%

SMILES	AF percent inhibition ([1]; @12.5 μg/ml)	CA percent inhibition [2]	AF percent inhibition ([1]; @8 μg/ml)
CCOc1ccc(C=C2Oc3cc4c(c(O)c3C2=O)CCC(C)(C)O4)cc1OC		58%	67%
CCOc1ccccc1C=C1Oc2cc3c(c(O)c2C1=O)CCC(C)(C)O3		80%	71%
COc1ccccc1C=C1Oc2cc3c(c(O)c2C1=O)CCC(C)(C)O3		76%	70%
C=CCc1c(O)cc2c(c1O)C(=O)C(=Cc1cc(C(C)(C)C)c(O)c(C(C)(C)C)c1)O2		49%	60%
C=CCc1c(O)cc2c(c1O)C(=O)C(=Cc1ccc(F)cc1F)O2		53%	96%
C=CCc1c(O)cc2c(c1O)C(=O)C(=Cc1ccc(OCC)c(OC)c1)O2		65%	69%
C=CCc1c(O)cc2c(c1O)C(=O)C(=Cc1ccccc1OCC)O2		22%	52%
C=CCc1c(O)cc2c(c1O)C(=O)C(=Cc1ccccc1OC)O2		20%	62%
Cc1cccc(C)c1C=C1Oc2cc(O)cc(O)c2C1=O	CA 0% AF 0% @12.5 μg/ml		
Cc1ccccc1C=C1Oc2cc(O)cc(O)c2C1=O	CA 0% AF 0% @12.5 μg/ml		
Cc1ccc(C=C2Oc3cc(O)cc(O)c3C2=O)cc1	CA 0% AF 0% @12.5 μg/ml		
CCc1ccc(C=C2Oc3cc(O)cc(O)c3C2=O)cc1	CA 0% AF 0% @12.5 μg/ml		
Cc1cccc(C)c1C=C1Oc2cc3c(c(O)c2C1=O)CCC(C)(C)O3		82%	97%
Cc1ccccc1C=C1Oc2cc3c(c(O)c2C1=O)CCC(C)(C)O3		13%	34%
Cc1ccc(C=C2Oc3cc4c(c(O)c3C2=O)CCC(C)(C)O4)cc1		58%	93%
